Laboratory results: patent US12263066B2, “Apparatuses, systems and methods for perforating and aspirating inner ear” (priority 2018, dated 2025)

Assay: Valia-Chien diffusion cell, trans-membrane diffusion of RhoB
Assay type: in vitro ADME
Source text: A Valia-Chien cell apparatus separated by an artificial barrier membrane was used to compare the in vitro drug delivery kinetics of the small molecule Rhodamine B delivered via P407 and saline solution, both with and without perforations. The applied methods for measuring trans-membrane diffusion were adapted from the American Association of Pharmaceutical Scientists as well as the Federal Drug Administration recommendations for in vitro percutaneous absorption rate studies (EPA, Recommended Protocol For In Vitro Percutaneous Absorption Rate Studies, Federal Register Notices, 61(65):14773-14778, 1996. Agency Docket: OPPTS-42186A.)
P407 powder (Spectrum Chemical, Gardena, CA) was mixed with demineralized water and RhoB to create a 0.1 mM RhoB solution in 18% P407 by weight. The resulting mixture was stirred at room temperature and kept overnight in a refrigerator at 3 to 4° C. to facilitate dissolution of the P407 powder. At the chosen P407 concentration, the mixture transitioned into gel upon placement within the room-temperature testing apparatus.
Diffusion of RhoB through an artificial membrane barrier was performed using 9 mm clear unjacketed Valia-Chien diffusion cells (PermeGear Inc., Hellertown, PA) with 5 mL volumes and flat-ground joints. […] The Valia-Chien diffusion cells 800 were arranged horizontally, mitigating the effects of gravity on particle movement and allowing for active stirring of both the donor 810 and receptor compartments 820 by magnetic mini-stirrers 840 (HI 190M-1, Hanna Instruments, Woonsocket, RI). A 3D-printed adapter 850 was used as a conduit between the chambers 810, 820.
The donor chamber 810 was filled with 5.0 mL volumes of: (A) 0.1 mM RhoB in PBS or (B) 0.1 mM RhoB in 18% P407. An additional sample of donor solution was reserved for the calibration of fluorescence detection, as detailed below. Active stirring of the donor chamber 810 was performed for experiments utilizing PBS, but not those utilizing gelified P407. Initial filling of the donor chamber marked time zero for each experiment.
The receptor chamber 820 was filled with 5.0 mL of PBS prepared by dissolving 9.6 g of Dulbecco's Phosphate Buffered Saline powder (Sigma-Aldrich) in 1.0 L deionized water. An Eppendorf micropipette was used to withdraw 75 μL of fluid from the receptor chamber every 15 minutes, from 0 min to 165 min, for a total of 12 samples. The collected samples were placed in individual wells of a 96-well plate for further analysis. The withdrawn solution was replaced with 75 μL of PBS to prevent advection of fluid within the system. […] Active stirring of the receptor chamber 820 was performed for all experiments.
Whatman™ Grade 2 Qualitative Filter Paper with diameter 5.5 cm, thickness 190 μm and pore size 8.0 μm (Whatman Limited, England) was used as an artificial membrane 830 barrier separating the donor and receptor chambers. […] Using an artificial barrier controlled for pore size as well as membrane thickness. The filter paper was cut to fit a custom 3D-printed diffusion cell adapter, which was circumferentially sealed with general-purpose epoxy. Teflon tape was used to prevent leakage between the 3D-printed adapter and the joint, which were secured with a standard Valia-Chien cell clamp. The filter paper was equilibrated in PBS solution for 30 min prior to any contact with donor substance. […]

CCN(CC)c1ccc2c(-c3ccccc3C(=O)O)c3ccc(=[N+](CC)CC)cc-3oc2c1.[Cl-] [RhoB, Rhodamine B]
permeance (RhoB in P407, membrane with one 200 μm perforation): 3.0×10^−7 m s^−1
permeance (RhoB in P407, unperforated artificial membrane): 2.2×10^−7 m s^−1
permeance (RhoB in PBS, unperforated artificial membrane): 3.04×10^−6 m s^−1
diffusion rate in P407 relative to saline (times lower) (after the initial burst release): more than 10 times
increase in measured permeance (saline as solvent, membranes with up to four 100 μm perforations vs unperforated): 1.5 fold
